Source: PMC4128046, “Effect of a toggle switch mutation in TM6 of the human adenosine A3 receptor on Gi protein-dependent signalling and Gi-independent receptor internalization” (British Journal of Pharmacology, 2014)
Substitutions are numbered along the chain they refer to. Read-outs that look alike come from different tables or passages of the source.

Experiments:
Assay type in all cases: cell-based
[1] = target: T1, human A3 receptor fused to YFP (A3-YFP) (Homo sapiens, UniProt P0DMS8); test: Automated imaging of receptor internalization (granularity analysis), A3-YFP; conditions: for Maximal internalization (%): percentage of internalization with 10 μM NECA in the cell line
T1 construct: cDNA encoding the full length human A3 receptor; expressed in transfected cells
T1 sequence (P0DMS8 1-318): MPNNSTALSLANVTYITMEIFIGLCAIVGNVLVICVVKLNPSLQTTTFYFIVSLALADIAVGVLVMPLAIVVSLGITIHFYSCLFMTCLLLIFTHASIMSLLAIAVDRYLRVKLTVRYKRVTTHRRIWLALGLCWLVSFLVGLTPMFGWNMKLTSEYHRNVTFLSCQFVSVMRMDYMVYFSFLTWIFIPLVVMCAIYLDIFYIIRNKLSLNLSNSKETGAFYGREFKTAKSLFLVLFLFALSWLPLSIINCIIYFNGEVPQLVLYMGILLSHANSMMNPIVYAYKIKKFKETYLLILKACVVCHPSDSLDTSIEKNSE
Description: Immediately before experimentation, normal growth medium was replaced with serum-free medium. […] Medium was removed and cells were washed once in PBS. […] Images were obtained using an ImageXpress Ultra confocal plate reader (Molecular Devices, Sunnyvale, CA, USA). Four central images were obtained per well using a Plan Fluor 40x NA0.6 extra-long working distance objective. BiFC and YFP images were obtained by excitation with a 488 nm laser line with emission collected through a 525-550 nm band pass filter and H33342 images obtained by excitation with a 405 nm laser line and emission collected through a 447-460 nm band pass filter. Granularity analysis was performed on the resulting images using a granularity algorithm within MetaXpress software (Molecular Devices, Sunnyvale, CA, USA) and intensity above background was set for each individual experiment (Kilpatrick et al., [2010]). Areas of internalized receptors were identified by granularity analysis; granules were defined as having a diameter of between 7 and 15 μm and nuclei as having a diameter of between 6 and 9 μm, resulting in a measurement of the granule count per cell for each image. A basal and FSK control was included in each separate concentration-response CRE-SPAP gene transcription assay and cAMP accumulation assay to allow the responses in each cell line to be expressed as an inhibition of FSK-stimulated SPAP production. […] All data were fitted using non-linear regression in Prism 5 (GraphPad Software, San Diego, CA, USA). […] Statistical significance was determined by Student's unpaired t-test or by one-way ANOVA with Dunnett's post hoc analysis and P < 0.05 was considered statistically significant.

A3-YFP [2] = target: T2, A3-YFP (Homo sapiens, UniProt P0DMS8); test: CRE-SPAP gene transcription assay, A3-YFP; conditions: A3-YFP cells; for agonist-mediated inhibition of SPAP production after PTx pre-incubation: PTx 100 ng·mL−1 overnight, 3 μM FSK; for Emax: read-out: Maximum response (% inhibition of 10 μM FSK), CRE-SPAP assay
T2 construct: cDNA encoding the full length human A3 receptor; expressed in transfected cells
T2 sequence (P0DMS8 1-318): T1 sequence (P0DMS8 1-318)
Experimental: (§1) One day before analysis, normal growth medium was removed from the cells and replaced with serum-free medium (DMEM/F12 containing 2 mM L-glutamine). Where applicable, PTx (100 ng·mL^−1) was added at this stage. On the day of the assay, the medium was removed and replaced with fresh serum-free medium containing the required concentration of the agonist, and cells were incubated for 1 h at 37°C/5% CO2. After 1 h, the required concentration of forskolin (FSK) was added, and cells were incubated for a further 5 h at 37°C/5% CO2. Following the 5 h incubation, all medium was removed from the cells, 40 μL of fresh serum-free medium was added to each well and cells incubated for a further 1 h at 37°C/5% CO2. The plates were then incubated at 65°C for 30 min, to destroy any endogenous alkaline phosphatases.
(§2) A basal and FSK control was included in each separate concentration-response CRE-SPAP gene transcription assay and cAMP accumulation assay to allow the responses in each cell line to be expressed as an inhibition of FSK-stimulated SPAP production.

A3 W243F-YFP = target: T3, A3 W243F-YFP (Homo sapiens, UniProt P0DMS8, W243F); test: CRE-SPAP gene transcription assay, A3 W243F-YFP; conditions: A3 W243F-YFP cells
T3 construct: Full length A3 W243F-YFP was excised and subcloned into a native pcDNA3.1 vector; expressed in transfected cells
T3 sequence (P0DMS8 1-318 W243F): T1 sequence (P0DMS8 1-318) with W243F
Experimental: as §1, with “phosphatases. Plates were cooled to room temperature and 100 μL of 5 mM 4-nitrophenyl phosphate in diethanolamine-containing buffer [10% (v v^−1) diethanolamine, 280 mM NaCl, 500 μM MgCl2, pH 9.85] was added to each well; the plates were then incubated at 37°C for 25 min. The absorbance at 405 nm was measured using a Dynex MRX plate reader (Chelmsford, MA, USA).” for “phosphatases.”
as §2

A3-YFP [3] = target: T2, A3-YFP; test: [3H]-cAMP accumulation assay, A3-YFP; conditions: for Emax: read-out: Maximum response (% inhibition of 3 μM FSK), cAMP accumulation assay, A3-YFP cells, 1 h stimulation
Experimental: On the day of analysis, cells were labelled with [^3H]-adenine (2 μCi·mL^−1) in a total volume of 600 μL per well for 2 h at 37°C/5% CO2 in normal growth medium. After 2 h, the [^3H]-adenine-containing medium was removed; cells washed once in serum-free medium and fresh serum-free medium, containing 10 μM rolipram, added. The required concentration of agonist was added to the appropriate well and cells incubated for 10 min at 37°C. After 10 min, 10 μM FSK was added to all wells, apart from basal wells, and cells were incubated for a further 1 h at 37°C. The assay was terminated by the addition of 50 μL concentrated HCl to each well. The levels of [^3H]-cAMP incorporated were measured by sequential Dowex and alumina chromatography and the efficiency of each column was determined by the recovery of [^14C]-cAMP as described by Donaldson et al. ([1988]).
as §2

| EC50 ([1]; A3-YFP CHO CRE-SPAP cells, 45 min, granule count per cell, read-out: pEC50 (internalization) (converted)) [nM] | EC50 ([1]; A3-YFP cells, PTx 100 ng·mL−1 overnight, read-out: pEC50 (internalization) in the presence of PTx (converted)) [nM] | decrease in the maximal levels of internalization in the presence of PTx ([1]; A3-YFP cells, PTx pretreatment, reduction vs. 10 μM NECA internalization) [%] | EC50 (A3-YFP [2]; 5 h with FSK, read-out: pEC50 (CRE-SPAP assay) (converted)) [nM] | Maximum response (% inhibition of 10 μM FSK), CRE-SPAP assay (A3 W243F-YFP) | maximum inhibition of SPAP production in response to 3 μM FSK (A3 W243F-YFP; 5 h stimulation, 3 μM FSK) | EC50 (A3-YFP [3]; read-out: pEC50 (cAMP accumulation assay) (converted)) [nM] | SMILES | Maximal internalization (%) ([1]; A3-YFP cells) | agonist-mediated inhibition of SPAP production after PTx pre-incubation (A3-YFP [2]) | Emax (A3-YFP [2]) [%] | Emax (A3-YFP [3]) [%] | SPAP production in the absence of FSK (Gs coupling) (A3-YFP [2]; no FSK, with or without PTx) | agonist-mediated inhibition of SPAP production after PTx pre-incubation (A3 W243F-YFP; PTx 100 ng·mL−1 overnight, 3 μM FSK) | SPAP production in the absence of FSK (Gs coupling) (A3 W243F-YFP; no FSK, with or without PTx) | Emax (A3 W243F-YFP; read-out: Maximum response (% inhibition of 10 μM FSK), CRE-SPAP assay) [%] |
| --- | --- | --- | --- | --- | --- | --- | --- | --- | --- | --- | --- | --- | --- | --- | --- |
| 245 | 282 | 30 ± 6 | 3.02 | No inhibition | no significant decrease | 2.4 | CCCCC#Cc1nc(NC)c2ncn([C@@H]3O[C@H](CO)[C@@H](O)[C@H]3O)c2n1 [HEMADO, 2-(1-hexynyl)-N-methyladenosine] | 105.1±11.0 | no HEMADO-mediated response was observed | 73.2 ± 7.7 | 80 ± 5.1 |  |  |  |  |
|  |  |  |  |  |  |  | CCNC(=O)[C@H]1O[C@@H](n2cnc3c(N)ncnc32)[C@H](O)[C@@H]1O [NECA, 5-(N-ethylcarboxamido)adenosine] | 100 | abolished | 65.8 ± 8.2 | 77.5 ± 6.9 | no increase in SPAP production | abolished | no increase in SPAP production | 34.8 ± 6.7 |
